For orientation: EC50 means the midpoint of the concentration-response curve. The low end stands for greater potency, the high end for weaker potency.

Voltage-gated potassium channel, KQT; KCNQ2(Kv7.2)/KCNQ3(Kv7.3), sequence (O43526 whole entry): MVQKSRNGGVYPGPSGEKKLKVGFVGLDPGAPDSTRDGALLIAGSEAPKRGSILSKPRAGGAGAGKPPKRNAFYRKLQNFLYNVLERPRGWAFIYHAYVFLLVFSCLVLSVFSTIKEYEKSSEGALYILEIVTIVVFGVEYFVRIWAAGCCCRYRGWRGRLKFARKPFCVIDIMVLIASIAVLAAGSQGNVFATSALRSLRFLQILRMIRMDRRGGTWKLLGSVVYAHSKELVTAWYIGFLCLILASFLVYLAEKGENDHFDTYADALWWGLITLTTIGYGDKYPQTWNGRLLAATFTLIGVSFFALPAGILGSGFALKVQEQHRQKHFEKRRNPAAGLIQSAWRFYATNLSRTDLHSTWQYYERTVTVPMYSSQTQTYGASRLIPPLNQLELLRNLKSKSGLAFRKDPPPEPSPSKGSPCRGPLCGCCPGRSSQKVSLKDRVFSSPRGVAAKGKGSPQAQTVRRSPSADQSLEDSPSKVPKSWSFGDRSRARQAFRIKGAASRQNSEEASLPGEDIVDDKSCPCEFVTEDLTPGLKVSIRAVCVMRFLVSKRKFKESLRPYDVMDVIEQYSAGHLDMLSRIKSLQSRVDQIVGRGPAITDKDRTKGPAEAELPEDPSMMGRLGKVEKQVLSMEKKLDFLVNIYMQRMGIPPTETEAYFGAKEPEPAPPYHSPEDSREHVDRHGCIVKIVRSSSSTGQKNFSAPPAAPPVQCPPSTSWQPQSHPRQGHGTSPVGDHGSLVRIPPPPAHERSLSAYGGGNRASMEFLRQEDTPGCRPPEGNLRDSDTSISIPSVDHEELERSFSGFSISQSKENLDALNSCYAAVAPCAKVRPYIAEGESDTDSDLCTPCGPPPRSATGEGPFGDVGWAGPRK
Voltage-gated potassium channel, KQT; KCNQ2(Kv7.2)/KCNQ3(Kv7.3), sequence (O43525 whole entry): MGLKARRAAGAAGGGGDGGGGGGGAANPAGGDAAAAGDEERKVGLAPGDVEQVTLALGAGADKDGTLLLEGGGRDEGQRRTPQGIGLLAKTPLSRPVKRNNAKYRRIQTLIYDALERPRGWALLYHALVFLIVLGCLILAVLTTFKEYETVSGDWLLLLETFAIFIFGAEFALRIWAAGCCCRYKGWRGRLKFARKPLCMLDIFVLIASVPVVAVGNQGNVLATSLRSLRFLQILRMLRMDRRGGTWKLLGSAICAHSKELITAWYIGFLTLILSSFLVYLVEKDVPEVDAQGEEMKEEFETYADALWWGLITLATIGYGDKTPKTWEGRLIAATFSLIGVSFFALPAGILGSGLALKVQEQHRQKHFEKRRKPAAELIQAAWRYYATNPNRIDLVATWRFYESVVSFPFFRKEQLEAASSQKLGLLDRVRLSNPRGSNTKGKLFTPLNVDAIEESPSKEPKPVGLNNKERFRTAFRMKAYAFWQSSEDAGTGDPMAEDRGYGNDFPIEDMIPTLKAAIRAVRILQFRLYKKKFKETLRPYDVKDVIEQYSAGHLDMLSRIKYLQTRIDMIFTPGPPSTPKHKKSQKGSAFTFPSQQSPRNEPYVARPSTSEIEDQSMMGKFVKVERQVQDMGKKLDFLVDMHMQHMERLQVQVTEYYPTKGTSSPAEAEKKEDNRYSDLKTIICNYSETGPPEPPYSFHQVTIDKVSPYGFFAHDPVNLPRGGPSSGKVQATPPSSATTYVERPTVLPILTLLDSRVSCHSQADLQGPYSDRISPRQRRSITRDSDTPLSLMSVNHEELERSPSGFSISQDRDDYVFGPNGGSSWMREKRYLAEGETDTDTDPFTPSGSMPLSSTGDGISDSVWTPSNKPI

The experiment has as its target Voltage-gated potassium channel, KQT; KCNQ2(Kv7.2)/KCNQ3(Kv7.3) (Homo sapiens, UniProt O43525+O43526). The experiment can be described thus: Activation of KCNQ2/Q3. Format: protein-complex assay.
Consider `CC(C)(C)CC(=O)Nc1nn2cccnc2c1-c1ccc(OC(F)(F)F)cc1`, for which the EC50 is less than 500 nM.
`CC(C)(C)CC(=O)Nc1nn2cccnc2c1-c1ccc(F)cc1` displayed an EC50 of less than 1000 nM.
With `Cc1cnc2c(Cc3ccc(F)cc3)c(NC(=O)CC3CCCC3)nn2c1`, the EC50 is less than 100 nM.

The values are drawn from ChEMBL document CHEMBL2146429, “Potassium channel modulators as possible treatment for pain: patent highlight” (ACS Med Chem Lett, 2012).
